Reference: PubChem BioAssay AID1963981 (Molecular Pharmacology Branch, DTP, NCI, 2024)

System: 354836-022-R-J1-PDC multicell spheroid viability
Assay: Anticancer human tumor 354836-022-R-J1-PDC patient-derived head and neck squamous cell carcinoma cell line growth inhibition [PI3K]
Conditions: for IC50: curve of first compound; for viability, T/C: stronger effect = lower value
Description: Combinatorial screen of targeted agents with the PI3K inhibitors inavolisib, alpelisib, duvelisib, and copanlisib in multi-cell type tumor spheroids
A high-throughput screen of multi-cell type tumor spheroids was designed to identify active combinations of targeted small molecules and PI3K pathway inhibitors. Complex spheroids include a stromal component modeled by human endothelial cells (HUVEC) and fibroblasts modeled by human mesenchymal stem cells (MSCs). The concentration ranges selected for each drug and investigational agent were based upon clinically achievable concentrations if the clinical Cmax of the agent was known.
Compounds. The drugs and investigational agents: inavolisib (NSC800729), alpelisib (NSC765974), duvelisib (NSC772469), copanlisib (NSC816437), ipatasertib (NSC767898), afuresertib (NSC778305), talazoparib (NSC767125), sapanisertib (NSC764658), selumetinib (NSC741078), tovorafenib (DAY101, NSC766906), vemurafenib (NSC761431), ravoxertinib (NSC781343), sotorasib (NSC818433), MRTX1133 (NSC 836407), abemaciclib (NSC 768073), palbociclib (NSC758247), venetoclax (NSC 766270), SY5609 (NSC837396), enzalutamide (NSC755605), and darolutamide (NSC825331), were obtained from the National Cancer Institute (NCI) Developmental Therapeutics Program Chemical Repository. The FDA-approved anticancer drug set is available from the NCI Developmental Therapeutics Program. […] The stock solutions were prepared in dimethyl sulfoxide (DMSO, Sigma-Aldrich, St. Louis, MO, cat. D2650) at 800-fold the tested concentration and stored at -70 degrees C prior to their use. All drugs and investigational agents were tested over a range starting from a high concentration at or near the clinical Cmax and decreasing in half-log increments. If the clinical Cmax for an agent had not been determined, the highest concentration tested was 10 microM.
Cell Culture. All cells were maintained in an incubator at 37 degrees C and 5% CO2 with 95% humidity. The PDC lines were cultured according to standard operating procedures established by the NCI PDMR (https://pdmr.cancer.gov/sops/default.htm). All PDCs were thawed and cultured in Matrigel-coated flasks prepared with a working solution of 1X Ham's F-12 nutrient mix, without supplementation (Invitrogen, Waltham, MA, cat. 11765054), 100 U/mL penicillin-streptomycin (Invitrogen, cat. 15140122), and 2.5% Matrigel (Corning Inc., Corning, NY, cat. 354248) for the first three passages. The 354836-022-R-J1-PDC, 475296-252-R-J1-PDC, and 997726-040-R-J2-PDC lines were cultured in 6A media, which includes advanced DMEM/F-12 (Thermo Fisher Scientific, cat. 12634028), 10 mM HEPES (Thermo Fisher Scientific, cat. 15630080), 1X GlutaMAX supplement (Thermo Fisher Scientific, cat. 35050061), 0.1 mg/mL primocin (InvivoGen, San Diego, CA, cat. ant-pm-2), 10% defined fetal bovine serum, heat inactivated (HyClone Laboratories Inc., Logan, UT, cat. SH30070.03HI), 50% L-WRN conditioned media (ATCC, cat. CRL-3276), 1.25 mM N-Acetyl-L-cysteine (Sigma-Aldrich, cat. A9165), 10 mM nicotinamide (Sigma-Aldrich, cat. N0636), 1X B-27 supplement (Thermo Fisher Scientific, cat. 17504044), 1X N-2 supplement (Thermo Fisher Scientific, cat. 17502048), and 10 microM Y-27632 dihydrochloride (Tocris Bioscience, Bristol, United Kingdom, cat. 1254). The 624824-186-R-J2-PDC line was cultured in 6C/Colon 1B media, which includes all 6A media components plus 50 ng/mL human EGF recombinant protein (Thermo Fisher Scientific, cat. PHG0311). […]
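Note: spheroids exposed to agents for seven days before the viability read.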

CNC(=O)c1ccc(N2C(=S)N(c3ccc(C#N)c(C(F)(F)F)c3)C(=O)C2(C)C)cc1F + CC(Nc1ccc2c(c1)OCCn1cc(N3C(=O)OCC3C(F)F)nc1-2)C(N)=O
IC50 (second compound 0.00316 µM): > 10 µM
IC50 (second compound 0.01 µM): > 10 µM
IC50 (second compound 0.0316 µM): > 10 µM
IC50 (second compound 0.1 µM): > 10 µM
IC50 (second compound 0.316 µM): > 10 µM
IC50 (second compound 1 µM): > 10 µM
viability, T/C (second compound 0.00316 µM, first compound 0.0316 µM): 92.3%
viability, T/C (second compound 0.00316 µM, first compound 0.1 µM): 99%
viability, T/C (second compound 0.00316 µM, first compound 0.316 µM): 104%
viability, T/C (second compound 0.00316 µM, first compound 1 µM): 82.8%
viability, T/C (second compound 0.00316 µM, first compound 3.16 µM): 97.8%
viability, T/C (second compound 0.00316 µM, first compound 10 µM): 84.7%
viability, T/C (second compound 0.01 µM, first compound 0.0316 µM): 120%
viability, T/C (second compound 0.01 µM, first compound 0.1 µM): 88%
viability, T/C (second compound 0.01 µM, first compound 0.316 µM): 94.3%
viability, T/C (second compound 0.01 µM, first compound 1 µM): 101%
viability, T/C (second compound 0.01 µM, first compound 3.16 µM): 93.5%
viability, T/C (second compound 0.01 µM, first compound 10 µM): 84.6%
viability, T/C (second compound 0.0316 µM, first compound 0.0316 µM): 92%
viability, T/C (second compound 0.0316 µM, first compound 0.1 µM): 96.7%
viability, T/C (second compound 0.0316 µM, first compound 0.316 µM): 83.1%
viability, T/C (second compound 0.0316 µM, first compound 1 µM): 89.4%
viability, T/C (second compound 0.0316 µM, first compound 3.16 µM): 87.9%
viability, T/C (second compound 0.0316 µM, first compound 10 µM): 88.2%
viability, T/C (second compound 0.1 µM, first compound 0.0316 µM): 90.8%
viability, T/C (second compound 0.1 µM, first compound 0.1 µM): 95.2%
viability, T/C (second compound 0.1 µM, first compound 0.316 µM): 94.2%
viability, T/C (second compound 0.1 µM, first compound 1 µM): 91%
viability, T/C (second compound 0.1 µM, first compound 3.16 µM): 88.7%
viability, T/C (second compound 0.1 µM, first compound 10 µM): 85.7%
viability, T/C (second compound 0.316 µM, first compound 0.0316 µM): 62.9%
viability, T/C (second compound 0.316 µM, first compound 0.1 µM): 79.9%
viability, T/C (second compound 0.316 µM, first compound 0.316 µM): 74.1%
viability, T/C (second compound 0.316 µM, first compound 1 µM): 67.6%
viability, T/C (second compound 0.316 µM, first compound 3.16 µM): 77.6%
viability, T/C (second compound 0.316 µM, first compound 10 µM): 67.9%
viability, T/C (second compound 1 µM, first compound 0.0316 µM): 63.5%
viability, T/C (second compound 1 µM, first compound 0.1 µM): 57.7%
viability, T/C (second compound 1 µM, first compound 0.316 µM): 64.3%
viability, T/C (second compound 1 µM, first compound 1 µM): 58.4%
viability, T/C (second compound 1 µM, first compound 3.16 µM): 54.3%
viability, T/C (second compound 1 µM, first compound 10 µM): 53.4%
